Literature values in publication PMC12901815 (Environmental Analysis, Health and Toxicology, 2025).

Settings: male Alderley Park rats, oral administration; cited from earlier work

**Q.** Which “tissue distribution of radioactivity” value does the source give for polyaminopropylbiguanide [PHMB] here?
**A.** Its value is “the highest radioactivity occurred in adipose tissue, followed by kidneys and liver, without detectable brain accumulation”.
